Key:
[1] = target: T1, Amine oxidase [flavin-containing] A (Homo sapiens, UniProt P21397); test: Inhibition of human MAOA
T1 sequence (P21397 whole entry): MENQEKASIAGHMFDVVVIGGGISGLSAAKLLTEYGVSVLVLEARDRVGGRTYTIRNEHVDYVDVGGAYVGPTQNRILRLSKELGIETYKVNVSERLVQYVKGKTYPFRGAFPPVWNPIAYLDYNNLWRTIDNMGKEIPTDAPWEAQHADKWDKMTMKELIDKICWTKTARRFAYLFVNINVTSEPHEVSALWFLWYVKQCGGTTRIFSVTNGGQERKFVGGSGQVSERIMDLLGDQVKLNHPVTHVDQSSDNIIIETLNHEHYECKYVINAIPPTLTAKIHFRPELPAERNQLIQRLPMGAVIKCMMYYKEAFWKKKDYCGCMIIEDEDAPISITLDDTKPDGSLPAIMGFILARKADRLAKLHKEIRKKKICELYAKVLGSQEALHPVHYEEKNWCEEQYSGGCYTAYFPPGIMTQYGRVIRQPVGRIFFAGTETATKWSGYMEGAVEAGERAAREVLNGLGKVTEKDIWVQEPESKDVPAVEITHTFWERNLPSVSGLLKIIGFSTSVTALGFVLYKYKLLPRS

[2] = target: T2, Amine oxidase [flavin-containing] B (Homo sapiens, UniProt P27338); test: Inhibition of human recombinant MAOB expressed in Pichia pastoris assessed as formation of intense negative dichroic band at […] by CD spectroscopy
T2 sequence (P27338 whole entry): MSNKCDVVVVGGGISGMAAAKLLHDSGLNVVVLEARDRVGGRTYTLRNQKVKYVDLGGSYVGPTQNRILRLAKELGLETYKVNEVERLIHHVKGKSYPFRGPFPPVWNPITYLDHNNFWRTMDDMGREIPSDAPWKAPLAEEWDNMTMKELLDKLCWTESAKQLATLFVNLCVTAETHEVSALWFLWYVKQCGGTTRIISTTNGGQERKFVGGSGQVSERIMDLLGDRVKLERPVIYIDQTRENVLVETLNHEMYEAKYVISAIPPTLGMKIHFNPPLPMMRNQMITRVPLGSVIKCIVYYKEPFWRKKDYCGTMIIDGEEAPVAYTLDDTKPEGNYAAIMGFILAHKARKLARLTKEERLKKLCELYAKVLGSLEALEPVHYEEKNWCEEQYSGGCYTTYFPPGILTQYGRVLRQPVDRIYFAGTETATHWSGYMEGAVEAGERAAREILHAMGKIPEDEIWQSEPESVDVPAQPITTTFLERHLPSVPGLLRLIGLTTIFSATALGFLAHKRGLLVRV

[3] = target: T2, Amine oxidase [flavin-containing] B; test: Inhibition of human recombinant MAOB expressed in Pichia pastoris assessed as effect on flavin absorbance shift by spectroscopy
[4] = target: T2, Amine oxidase [flavin-containing] B; test: Inhibition of reduced human recombinant MAOB expressed in Pichia pastoris assessed as increase in absorbance of reduced enzyme; design: scale not given: the % may be the effect or the level left
[5] = target: T2, Amine oxidase [flavin-containing] B; test: Inhibition of human recombinant MAOB expressed in Pichia pastoris assessed as fluoride ion release by ion-selective electrode experiment
[6] = target: T2, Amine oxidase [flavin-containing] B; test: Inhibition of human recombinant MAOB expressed in Pichia pastoris by kinetic assay
[7] = target: T2, Amine oxidase [flavin-containing] B; test: Inhibition of human recombinant MAOB expressed in Pichia pastoris at stoichiometric level of 1 mol/mol of E-FAD
[8] = target: T1, Amine oxidase [flavin-containing] A; test: Inhibition of human recombinant MAOA expressed in Pichia pastoris by kinetic assay
[9] = target: T3, Amine oxidase [flavin-containing] B (Rattus norvegicus, UniProt P19643); test: Inhibition of rat membrane MAOB
T3 sequence (P19643 whole entry): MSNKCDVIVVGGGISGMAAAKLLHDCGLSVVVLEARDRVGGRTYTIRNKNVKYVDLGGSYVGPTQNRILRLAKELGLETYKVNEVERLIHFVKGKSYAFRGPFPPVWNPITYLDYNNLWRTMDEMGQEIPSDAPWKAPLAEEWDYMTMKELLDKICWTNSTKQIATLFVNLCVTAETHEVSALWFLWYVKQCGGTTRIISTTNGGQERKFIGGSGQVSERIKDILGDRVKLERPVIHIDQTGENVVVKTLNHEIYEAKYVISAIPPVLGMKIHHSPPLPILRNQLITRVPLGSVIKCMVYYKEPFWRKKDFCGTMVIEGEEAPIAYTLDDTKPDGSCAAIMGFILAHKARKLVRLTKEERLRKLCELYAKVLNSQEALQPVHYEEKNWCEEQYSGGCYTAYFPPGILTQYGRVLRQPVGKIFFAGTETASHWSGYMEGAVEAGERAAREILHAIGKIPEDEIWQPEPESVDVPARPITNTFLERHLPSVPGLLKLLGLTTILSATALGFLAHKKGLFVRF

[10] = target: T1, Amine oxidase [flavin-containing] A; test: Inhibition of oxidized human recombinant MAOA expressed in Pichia pastoris under anaerobic assay condition
[11] = target: T2, Amine oxidase [flavin-containing] B; test: Inhibition of oxidized human recombinant MAOB expressed in Pichia pastoris under anaerobic assay condition

| SMILES | Ki [1] [nM] | Activity [2] | Activity [3] | Activity [4] [%] | Activity [5] | Ki [6] [nM] | Activity [7] | Ki [8] [nM] | IC50 [9] [nM] | Activity [10] | Activity [11] |
| --- | --- | --- | --- | --- | --- | --- | --- | --- | --- | --- | --- |
| NCCCCc1ccccc1 [4-PHENYL-BUTYLAMINE] | 31000 |  |  |  |  |  |  |  |  |  |  |
| NC/C(=C/F)CCc1ccc(F)cc1 [MOFEGILINE] |  | Active | Active | 50 | Active | 28 | Active | 1100 | 3.6 | Not Active | Active |
